Data: patent US6797692B1, “Use of glutamate antagonists for the treatment of cancer” (priority 1998, dated 2004)
“Also recorded” adds a separate entry of the source.

Experiments:
[1] = tested on: human neuroblastoma cell line SK-N-AS; test: Tumoricidal effect, necrotic cells by trypan blue staining; type: cell-based; conditions: Student's t test; for potentiation of tumoricidal effect (toxicity) of cisplatin: antagonist 10 μM plus cisplatin 10 μM; for potentiation of tumoricidal effect (toxicity) of thiotepa: antagonist 10 μM plus thiotepa 10 μM; for potentiation of tumoricidal effect (toxicity) of vinblastin: antagonist 10 μM plus vinblastin 1 μM
Experimental: (§1) Cell lines and culture. Human neuroblastoma (SKNAS), human rhabdomyosarcoma/medulloblastoma (TE671), human brain astrocytoma (MOGGCCM), human thyroid carcinoma (FTC238), human lung carcinoma (A549), human colon adenocarcinoma (LS180) and human breast carcinoma (T47D) were obtained from European Collection of Cell Cultures (ECACC), Center for Applied Microbiology & Research, Salisbury, UK. SKNAS, TE671, T47D, LS180 were grown in 1:1 mixture of Dulbecco's Modified Eagle's Medium (DMEM; D 6421, Sigma, Ca^2+-concentration 1.05 mM) and Nutrient Mixture F-12 Ham (Ham's F-12; Sigma) supplemented with 10% Foetal Bovine Serum (FBS) (GIBCO). FTC238 was grown in the same culture medium suplemented with 5% FBS. MOGGCCM and A549 were grown in 2:1 mixture of DMEM (D 6046, Sigma, Ca^2+-concentration 1.8 mM):Ham's F-12 supplemented with 10% FBS. Cultures were kept at 37° C. in a 95% air-5% CO2 atmosphere. As Ca^2+-free medium, minimum essential medium M8167 from Sigma was used.
Assessment of tumoricidal effect. Quantitation of cell death was performed at 24, 48 or 72 hrs after exposure to the agents of interest following staining of the cells with trypan blue. This stain is taken up by necrotic cells. The numbers of necrotic cells/100 counted cells served as quantitative measure for tumoricidal effect (% of tumor cell death). For each agent or combination of agents and each time point 5 wells were analysed. Comparisons between groups was performed by means of Student's t-test.
(§2) Exposure to agents. Tumor cells were exposed to the following agents and concentrations: MK 801 (10-500 μM), GYKI 52466 (10-500 μM), Cisplatin (10 μM), Vinblastin (1 μM), Thiotepa (10 μM) alone or in combination with MK 801 (10 μM), GYKI 52466 (10 μM) or NBQX (10 μM).
Data represent the mean±SEM of necrotic cells visualized by trypan blue staining (n=5/group). The potentiating effect of all three glutamate receptor antagonists was most prominent after an exposure time of 72 h. *P<0.05; **P<0.01; ***P<0.001, Student's t test.
Data represent the mean±SEM of necrotic cells visualized by trypan blue staining (n=5/group). The potentiating effect of the NMDA- and both AMPA antagonists is most prominent after an exposure time of 72 h. *P<0.05;**P<0.01;***P<0.001, Student's t test.
Data represent the mean±SEM of necrotic cells visualized by trypan blue staining (n=5/group). The potentiating effect of the NMDA- and both AMPA antagonists is most prominent after an exposure time of 48 hrs. *P<0.05;**P<0.01;***P<0.001, Student's t test.

[2] = tested on: human tumor cell lines (SKNAS, TE671, MOGGCCM, FTC238, A549, LS180, T47D); test: MTT assay of cell viability (antiproliferative effect); type: cell-based; conditions: 10-500 μM over 96 hrs, linear regression
Experimental: as §1
Assessment of cell viability. The yellow tetrazolium salt MTT (3-4,5-dimethylthiazol-2-2,5-diphenyltetrazolium bromid) is metabolized by viable, metabolically active cells to purple formazan crystals. Tumor cells grown in 96 well multiplates were incubated over 4 hrs with MTT solution (Cell proliferation kit I, Boehringer Mannheim, Germany). Formazan crystals were solubilized overnight, according to the manufacturer's instructions, and the product was quantified spectrophotometrically by measuring absorbance at 570 nm wave length using a VICTOR Multilabel Counter (Wallach).
as §2
Cells were exposed to either culture medium alone (control) or dizocilpine (10-500 μM) over 96 hrs and viability was measured photometrically by means of the MTT assay. Data represent mean normalized optical densities±SEM of 6-8 measurements and were analyzed by means of linear regression. Abbreviations. SKNAS: human neuroblastoma; TE671: human rhabdomyosarcoma/medulloblastoma; MOGGCCM: human brain astrocytoma; FTC238: human thyroid carcinoma; A 549: human lung carcinoma; LS180: human colon adenocarcinoma; T47D: human breast carcinoma.
Cells were exposed to either culture medium alone (control) or GYKI52466 (10-500 μM) over 96 hrs and viability was measured photometrically by means of the MTT assay. Data represent mean normalized optical densities SEM of 68 measurements and were analyzed by means of linear regression. Abbreviations. […]

Structure (SMILES) | potentiation of tumoricidal effect (toxicity) of cisplatin [1] | potentiation of tumoricidal effect (toxicity) of thiotepa [1] | potentiation of tumoricidal effect (toxicity) of vinblastin [1] | antiproliferative effect in human tumor cell lines (viability, MTT assay) [2] | antiproliferative effect in human tumor cell lines (viability, MTT assay) ([2]; listed as GYK152466) | potentiation of tumoricidal effect (toxicity) of cisplatin ([1]; listed as MK801) | potentiation of tumoricidal effect (toxicity) of thiotepa ([1]; listed as MK801) | antiproliferative effect in human tumor cell lines (viability, MTT assay) ([2]; listed as (+)dizocilpine)
CC1=NN=C(c2ccc(N)cc2)c2cc3c(cc2C1)OCO3 [GYKI 52466] | significantly (P<0.05-0.001) potentiated; also recorded: significantly increase toxicity | significantly (P<0.05-0.001) potentiated; also recorded: potentiate toxicity | significantly (P<0.05-0.001) potentiated; also recorded: potentiate toxicity | concentration dependent antiproliferative effect | significant concentration-dependent antiproliferative effect | – | – | –
C[C@]12N[C@H](Cc3ccccc31)c1ccccc12 [MK 801] | significantly (P<0.05-0.001) potentiated | significantly (P<0.05-0.001) potentiated | significantly (P<0.05-0.001) potentiated; also recorded: potentiate toxicity | significant concentration-dependent antiproliferative effect | – | significantly increase toxicity | potentiate toxicity | concentration dependent antiproliferative effect
NS(=O)(=O)c1cccc2c1c([N+](=O)[O-])cc1nc(O)c(O)nc12 [NBQX, 2,3-dihydroxy-6-nitro-7-sulfaoylbenzo-(F)-quinoxaline] | significantly (P<0.05-0.001) potentiated; also recorded: significantly increase toxicity | significantly (P<0.05-0.001) potentiated; also recorded: potentiate toxicity | significantly (P<0.05-0.001) potentiated; also recorded: potentiate toxicity | – | – | – | – | –
